Reference: patent publication US10556888B2, “Pyrazole compounds or salts thereof, preparation methods therefor, herbicidal compositions and use thereof” (QINGDAO KINGAGROOT CHEMICAL COMPOUNDS CO., LTD, priority 2015, dated 2020)

Assays:
[1] = system: Monocotyledonous and dicotyledonous weed; test: Post-emergence test experiment, weed control effect (Table 2); assay type: in vivo; design: key to weed control effect, Setaria viridis (level) / weed control effect, Rorippa indica (level) / weed control effect, Abutilon theophrasti (level) / weed control effect, Echinochloa crus-galli (level) / weed control effect, Digitaria sanguinalis (level): Level 10: completely dead; Level 9: above 90% growth inhibition rate; Level 8: above 80% growth inhibition rate; Level 7: above 70% growth inhibition rate; Level 6: above 60% growth inhibition rate; Level 5: above 50% growth inhibition rate; Level 4: above 30% growth inhibition rate; Level 3: above 20% growth inhibition rate; Level 2: above 10% growth inhibition rate; Level 1: above 1-10% growth inhibition rate; Level 0: no effect; details: 3 weeks after spraying, greenhouse
Protocol: (§1) Post-emergence test experiment: Monocotyledonous and dicotyledonous weed seeds and main crop seeds (i.e. wheat, corn, rice, soybean, cotton, oilseed, millet and sorghum.) were put into a plastic pot loaded with soil. Then covered with 0.5-2 cm soil, the seeds were allowed to grow in good greenhouse environment. The test plants were treated at 2-3 leaf stage 2-3 weeks after sowing. The test compounds of the invention were dissolved with acetone respectively, then added with 80 tween and diluted by certain amount of water to certain concentration. The solution was sprayed to the plants with a sprayer. Then the plants were cultured for 3 weeks in the greenhouse.

[2] = system: main crop (wheat, corn, rice, soybean, cotton, oilseed, millet and sorghum); test: Post-emergence test experiment, main crops (Table 2); assay type: in vivo; design: key: Level 10: completely dead; Level 9: above 90% growth inhibition rate; Level 8: above 80% growth inhibition rate; Level 7: above 70% growth inhibition rate; Level 6: above 60% growth inhibition rate; Level 5: above 50% growth inhibition rate; Level 4: above 30% growth inhibition rate; Level 3: above 20% growth inhibition rate; Level 2: above 10% growth inhibition rate; Level 1: above 1-10% growth inhibition rate; Level 0: no effect; details: 3 weeks after spraying, greenhouse
Protocol: as §1

| Structure (SMILES) | weed control effect, Abutilon theophrasti (level) ([1]; 30 g/ha) | weed control effect, Bidens pilosa (level) ([1]; 30 g/ha) | weed control effect, Digitaria sanguinalis (level) ([1]; 30 g/ha) | weed control effect, Echinochloa crus-galli (level) ([1]; 30 g/ha) | weed control effect, Rorippa indica (level) ([1]; 30 g/ha) | weed control effect, Setaria viridis (level) ([1]; 30 g/ha) | effect on crop, corn (level) ([2]; 30 g/ha) | effect on crop, rice (level) ([2]; 30 g/ha) | effect on crop, wheat (level) ([2]; 30 g/ha) | also measured |
| --- | --- | --- | --- | --- | --- | --- | --- | --- | --- | --- |
| CCc1nn(C)c(C(=O)Oc2c(C(=O)c3ccc(S(C)(=O)=O)c(Cn4cccn4)c3Cl)c(C)nn2C(C)C)c1Cl [Compound 106] | – | – | – | – | – | – | – | – | – | weed control effect, Abutilon theophrasti (level) ([1]; 60 g/ha): 10; weed control effect, Bidens pilosa (level) ([1]; 60 g/ha): 8 (Level 8: above 80% growth inhibition rate); weed control effect, Digitaria sanguinalis (level) ([1]; 60 g/ha): 8 (Level 8: above 80% growth inhibition rate); weed control effect, Echinochloa crus-galli (level) ([1]; 60 g/ha): 10; weed control effect, Rorippa indica (level) ([1]; 60 g/ha): 10; weed control effect, Setaria viridis (level) ([1]; 60 g/ha): 10; effect on crop, corn (level) ([2]; 60 g/ha): 0; effect on crop, rice (level) ([2]; 60 g/ha): 1 (Level 1: above 1-10% growth inhibition rate); effect on crop, wheat (level) ([2]; 60 g/ha): 0 |
| C#CCOCc1c(S(C)(=O)=O)ccc(C(=O)c2c(C)nn(C)c2OC(=O)c2cnn(C)c2)c1Cl [Compound 69] | 7 (Level 7: above 70% growth inhibition rate) | 7 (Level 7: above 70% growth inhibition rate) | 6 (Level 6: above 60% growth inhibition rate) | 10 | 10 | 6 (Level 6: above 60% growth inhibition rate) | 0 | 3 (Level 3: above 20% growth inhibition rate) | 0 | – |
| Cn1cc(Cl)c(C(=O)Oc2c(C(=O)c3ccc(S(C)(=O)=O)c(COCC(F)F)c3Cl)cnn2C)n1 [Compound 102] | 7 (Level 7: above 70% growth inhibition rate) | 7 (Level 7: above 70% growth inhibition rate) | 7 (Level 7: above 70% growth inhibition rate) | 10 | 10 | 6 (Level 6: above 60% growth inhibition rate) | 1 (Level 1: above 1-10% growth inhibition rate) | 5 (Level 5: above 50% growth inhibition rate) | 0 | – |
| CCc1nn(C)c(C(=O)Oc2c(C(=O)c3ccc(S(C)(=O)=O)c(COCC(F)(F)F)c3Cl)cnn2C)c1Cl [Compound 105] | – | – | – | – | – | – | – | – | – | weed control effect, Abutilon theophrasti (level) ([1]; 60 g/ha): 10; weed control effect, Bidens pilosa (level) ([1]; 60 g/ha): 8 (Level 8: above 80% growth inhibition rate); weed control effect, Digitaria sanguinalis (level) ([1]; 60 g/ha): 9 (Level 9: above 90% growth inhibition rate); weed control effect, Echinochloa crus-galli (level) ([1]; 60 g/ha): 10; weed control effect, Rorippa indica (level) ([1]; 60 g/ha): 10; weed control effect, Setaria viridis (level) ([1]; 60 g/ha): 10; effect on crop, corn (level) ([2]; 60 g/ha): 0; effect on crop, rice (level) ([2]; 60 g/ha): 4 (Level 4: above 30% growth inhibition rate); effect on crop, wheat (level) ([2]; 60 g/ha): 0 |
| C#CCOCc1c(S(C)(=O)=O)ccc(C(=O)c2c(C)nn(C)c2OC(=O)c2cnn(C)c2OCC)c1Cl [Compound 56] | 7 (Level 7: above 70% growth inhibition rate) | 7 (Level 7: above 70% growth inhibition rate) | 7 (Level 7: above 70% growth inhibition rate) | 10 | 10 | 9 (Level 9: above 90% growth inhibition rate) | 0 | 3 (Level 3: above 20% growth inhibition rate) | 0 | – |
| Cc1nn(C)cc1C(=O)Oc1c(C(=O)c2ccc(S(C)(=O)=O)c(COCC(F)(F)C(F)F)c2Cl)c(C2CC2)nn1C [Compound 48] | 7 (Level 7: above 70% growth inhibition rate) | 7 (Level 7: above 70% growth inhibition rate) | 7 (Level 7: above 70% growth inhibition rate) | 10 | 10 | 9 (Level 9: above 90% growth inhibition rate) | 0 | 3 (Level 3: above 20% growth inhibition rate) | 0 | – |
| C#CCOCc1c(S(C)(=O)=O)ccc(C(=O)c2cnn(C)c2OC(=O)c2cnn(C)c2OCC)c1Cl [Compound 58] | 7 (Level 7: above 70% growth inhibition rate) | 7 (Level 7: above 70% growth inhibition rate) | 7 (Level 7: above 70% growth inhibition rate) | 10 | 10 | 9 (Level 9: above 90% growth inhibition rate) | 0 | 3 (Level 3: above 20% growth inhibition rate) | 0 | – |
| Cc1nn(C)c(OC(=O)c2cnn(C)c2)c1C(=O)c1ccc(S(C)(=O)=O)c(COCC(F)(F)C(F)F)c1Cl [Compound 65] | 6 (Level 6: above 60% growth inhibition rate) | 7 (Level 7: above 70% growth inhibition rate) | 7 (Level 7: above 70% growth inhibition rate) | 10 | 10 | 6 (Level 6: above 60% growth inhibition rate) | 0 | 3 (Level 3: above 20% growth inhibition rate) | 0 | – |
| Cc1nn(C)c(OC(=O)c2cnn(C)c2)c1C(=O)c1ccc(S(C)(=O)=O)c(COCC(F)(F)F)c1Cl [Compound 63] | 7 (Level 7: above 70% growth inhibition rate) | 7 (Level 7: above 70% growth inhibition rate) | 10 | 10 | 10 | 10 | 1 (Level 1: above 1-10% growth inhibition rate) | 6 (Level 6: above 60% growth inhibition rate) | 0 | – |
| Cc1nn(C)cc1C(=O)Oc1c(C(=O)c2ccc(S(C)(=O)=O)c(COCC(F)(F)F)c2Cl)cnn1C [Compound 44] | 7 (Level 7: above 70% growth inhibition rate) | 7 (Level 7: above 70% growth inhibition rate) | 10 | 10 | 10 | 9 (Level 9: above 90% growth inhibition rate) | 0 | 3 (Level 3: above 20% growth inhibition rate) | 0 | – |
| CCOCc1c(S(C)(=O)=O)ccc(C(=O)c2c(C)nn(C)c2OC(=O)c2cnn(C)c2)c1Cl [Compound 73] | 7 (Level 7: above 70% growth inhibition rate) | 7 (Level 7: above 70% growth inhibition rate) | 9 (Level 9: above 90% growth inhibition rate) | 10 | 10 | 9 (Level 9: above 90% growth inhibition rate) | 0 | 3 (Level 3: above 20% growth inhibition rate) | 0 | – |
| CCOc1c(C(=O)Oc2c(C(=O)c3ccc(S(C)(=O)=O)c(Cn4cc(C)cn4)c3C)c(C3CC3)nn2C)cnn1C [Compound 81] | – | – | – | – | – | – | – | – | – | weed control effect, Abutilon theophrasti (level) ([1]; 120 g/ha): 6 (Level 6: above 60% growth inhibition rate); weed control effect, Bidens pilosa (level) ([1]; 120 g/ha): 6 (Level 6: above 60% growth inhibition rate); weed control effect, Digitaria sanguinalis (level) ([1]; 120 g/ha): 1 (Level 1: above 1-10% growth inhibition rate); weed control effect, Echinochloa crus-galli (level) ([1]; 120 g/ha): 10; weed control effect, Rorippa indica (level) ([1]; 120 g/ha): 4 (Level 4: above 30% growth inhibition rate); weed control effect, Setaria viridis (level) ([1]; 120 g/ha): 3 (Level 3: above 20% growth inhibition rate); effect on crop, corn (level) ([2]; 120 g/ha): 0; effect on crop, rice (level) ([2]; 120 g/ha): 0; effect on crop, wheat (level) ([2]; 120 g/ha): 0 |
| Cn1cc(C(=O)Oc2c(C(=O)c3ccc(S(C)(=O)=O)c(COCC(F)(F)C(F)F)c3Cl)c(C3CC3)nn2C)cn1 [Compound 71] | 6 (Level 6: above 60% growth inhibition rate) | 8 (Level 8: above 80% growth inhibition rate) | 7 (Level 7: above 70% growth inhibition rate) | 8 (Level 8: above 80% growth inhibition rate) | 10 | 5 (Level 5: above 50% growth inhibition rate) | 0 | 3 (Level 3: above 20% growth inhibition rate) | 0 | – |
